Assay results reported in BigSolDB 2.1.

SMILES: O=C(N[C@@H](CO)C(=O)O)OCc1ccccc1
- solubility (mole fraction) (in 2-butanone, 283.15 K): 0.0333
- solubility (mole fraction) (in 2-butanone, 288.15 K): 0.037
- solubility (mole fraction) (in 2-butanone, 293.15 K): 0.0404
- solubility (mole fraction) (in 2-butanone, 298.15 K): 0.0456
- solubility (mole fraction) (in 2-butanone, 303.15 K): 0.052
- solubility (mole fraction) (in 2-butanone, 308.15 K): 0.0604
- solubility (mole fraction) (in 2-butanone, 313.15 K): 0.0726
- solubility (mole fraction) (in 2-butanone, 318.15 K): 0.0946
- solubility (mole fraction) (in 2-butanone, 323.15 K): 0.115
- solubility (mole fraction) (in acetone, 283.15 K): 0.0708
- solubility (mole fraction) (in acetone, 288.15 K): 0.0762
- solubility (mole fraction) (in acetone, 293.15 K): 0.0835
- solubility (mole fraction) (in acetone, 298.15 K): 0.0955
- solubility (mole fraction) (in acetone, 303.15 K): 0.11
- solubility (mole fraction) (in acetone, 308.15 K): 0.127
- solubility (mole fraction) (in acetone, 313.15 K): 0.15
- solubility (mole fraction) (in acetone, 318.15 K): 0.176
- solubility (mole fraction) (in acetone, 323.15 K): 0.205
- solubility (mole fraction) (in acetonitrile, 283.15 K): 0.00705
- solubility (mole fraction) (in acetonitrile, 288.15 K): 0.00841
- solubility (mole fraction) (in acetonitrile, 293.15 K): 0.00993
- solubility (mole fraction) (in acetonitrile, 298.15 K): 0.0126
- solubility (mole fraction) (in acetonitrile, 303.15 K): 0.0161
- solubility (mole fraction) (in acetonitrile, 308.15 K): 0.0213
- solubility (mole fraction) (in acetonitrile, 313.15 K): 0.0276
- solubility (mole fraction) (in acetonitrile, 318.15 K): 0.0385
- solubility (mole fraction) (in acetonitrile, 323.15 K): 0.0625
- solubility (mole fraction) (in ethyl acetate, 283.15 K): 0.0143
- solubility (mole fraction) (in ethyl acetate, 288.15 K): 0.0163
- solubility (mole fraction) (in ethyl acetate, 293.15 K): 0.0189
- solubility (mole fraction) (in ethyl acetate, 298.15 K): 0.0217
- solubility (mole fraction) (in ethyl acetate, 303.15 K): 0.0257
- solubility (mole fraction) (in ethyl acetate, 308.15 K): 0.0296
- solubility (mole fraction) (in ethyl acetate, 313.15 K): 0.0353
- solubility (mole fraction) (in ethyl acetate, 318.15 K): 0.0429
- solubility (mole fraction) (in ethyl acetate, 323.15 K): 0.0541
- solubility (mole fraction) (in isobutanol, 283.15 K): 0.0221
- solubility (mole fraction) (in isobutanol, 288.15 K): 0.0246
- solubility (mole fraction) (in isobutanol, 293.15 K): 0.0296
- solubility (mole fraction) (in isobutanol, 298.15 K): 0.0365
- solubility (mole fraction) (in isobutanol, 303.15 K): 0.0443
- solubility (mole fraction) (in isobutanol, 308.15 K): 0.0552
- solubility (mole fraction) (in isobutanol, 313.15 K): 0.0665
- solubility (mole fraction) (in isobutanol, 318.15 K): 0.0912
- solubility (mole fraction) (in isobutanol, 323.15 K): 0.115
- solubility (mole fraction) (in isopropanol, 283.15 K): 0.0443
- solubility (mole fraction) (in isopropanol, 288.15 K): 0.0505
- solubility (mole fraction) (in isopropanol, 293.15 K): 0.0591
- solubility (mole fraction) (in isopropanol, 298.15 K): 0.0707
- solubility (mole fraction) (in isopropanol, 303.15 K): 0.0841
- solubility (mole fraction) (in isopropanol, 308.15 K): 0.103
- solubility (mole fraction) (in isopropanol, 313.15 K): 0.123
- solubility (mole fraction) (in isopropanol, 318.15 K): 0.152
- solubility (mole fraction) (in isopropanol, 323.15 K): 0.185
- solubility (mole fraction) (in methyl acetate, 283.15 K): 0.0215
- solubility (mole fraction) (in methyl acetate, 288.15 K): 0.0262
- solubility (mole fraction) (in methyl acetate, 293.15 K): 0.0318
- solubility (mole fraction) (in methyl acetate, 298.15 K): 0.0365
- solubility (mole fraction) (in methyl acetate, 303.15 K): 0.0418
- solubility (mole fraction) (in methyl acetate, 308.15 K): 0.0477
- solubility (mole fraction) (in methyl acetate, 313.15 K): 0.0536
- solubility (mole fraction) (in methyl acetate, 318.15 K): 0.0635
- solubility (mole fraction) (in methyl acetate, 323.15 K): 0.0804
- solubility (mole fraction) (in n-butanol, 283.15 K): 0.0279
- solubility (mole fraction) (in n-butanol, 288.15 K): 0.0313
- solubility (mole fraction) (in n-butanol, 293.15 K): 0.0388
- solubility (mole fraction) (in n-butanol, 298.15 K): 0.0463
- solubility (mole fraction) (in n-butanol, 303.15 K): 0.0562
- solubility (mole fraction) (in n-butanol, 308.15 K): 0.067
- solubility (mole fraction) (in n-butanol, 313.15 K): 0.0821
- solubility (mole fraction) (in n-butanol, 318.15 K): 0.102
- solubility (mole fraction) (in n-butanol, 323.15 K): 0.137
- solubility (mole fraction) (in n-pentanol, 283.15 K): 0.0265
- solubility (mole fraction) (in n-pentanol, 288.15 K): 0.0286
- solubility (mole fraction) (in n-pentanol, 293.15 K): 0.0331
- solubility (mole fraction) (in n-pentanol, 298.15 K): 0.039
- solubility (mole fraction) (in n-pentanol, 303.15 K): 0.0455
- solubility (mole fraction) (in n-pentanol, 308.15 K): 0.0542
- solubility (mole fraction) (in n-pentanol, 313.15 K): 0.0628
- solubility (mole fraction) (in n-pentanol, 318.15 K): 0.0854
- solubility (mole fraction) (in n-pentanol, 323.15 K): 0.112
- solubility (mole fraction) (in n-propanol, 283.15 K): 0.0496
- solubility (mole fraction) (in n-propanol, 288.15 K): 0.0567
- solubility (mole fraction) (in n-propanol, 293.15 K): 0.0645
- solubility (mole fraction) (in n-propanol, 298.15 K): 0.0722
- solubility (mole fraction) (in n-propanol, 303.15 K): 0.0838
- solubility (mole fraction) (in n-propanol, 308.15 K): 0.0956
- solubility (mole fraction) (in n-propanol, 313.15 K): 0.11
- solubility (mole fraction) (in n-propanol, 318.15 K): 0.127
- solubility (mole fraction) (in n-propanol, 323.15 K): 0.175
- solubility (mole fraction) (in sec-butanol, 283.15 K): 0.0335
- solubility (mole fraction) (in sec-butanol, 288.15 K): 0.0385
- solubility (mole fraction) (in sec-butanol, 293.15 K): 0.0471
- solubility (mole fraction) (in sec-butanol, 298.15 K): 0.0585
- solubility (mole fraction) (in sec-butanol, 303.15 K): 0.0715
- solubility (mole fraction) (in sec-butanol, 308.15 K): 0.0862
- solubility (mole fraction) (in sec-butanol, 313.15 K): 0.109
- solubility (mole fraction) (in sec-butanol, 318.15 K): 0.13
- solubility (mole fraction) (in sec-butanol, 323.15 K): 0.159
- solubility (mole fraction) (in water, 283.15 K): 0.00097
- solubility (mole fraction) (in water, 288.15 K): 0.00116
- solubility (mole fraction) (in water, 293.15 K): 0.00133
- solubility (mole fraction) (in water, 298.15 K): 0.00165
- solubility (mole fraction) (in water, 303.15 K): 0.002
- solubility (mole fraction) (in water, 308.15 K): 0.00247
- solubility (mole fraction) (in water, 313.15 K): 0.00309
- solubility (mole fraction) (in water, 318.15 K): 0.00448
- solubility (mole fraction) (in water, 323.15 K): 0.00737
